Patent US4975450A, “Antidiarrheal” (Slovenska Akademia Vied, priority 1987, dated 1990)
Where two headings read alike, the source gives them in different places.

How the values were obtained:
[1] = test system: intestinal passage of carbo adsorbens; experiment: intestinal passage of carbo adsorbens, mice; assay type: in vivo; conditions: for intestinal passage of carbo adsorbens, complete intestine: atropin 5 mg/kg, reference 75.0 ± 1.9
Method: (§1) The active substance in 20 mg dose per one kg, if administered 30 minutes before administering castor oil, has extended the latent period up to the beginning of the diarrhea from 91.2±4.4 minutes to 127.3±6.3 minutes. […] (Table 1).
(§2) TABLE 1 - Influence of pharmaceutical substances on the intestinal passage of carbo adsorbens (100% is the complete intestine length): […]

[2] = test system: intestinal passage of carbo adsorbens; experiment: intestinal passage of carbo adsorbens, rats; assay type: in vivo; conditions: for intestinal passage of carbo adsorbens, small intestines: 100% is the complete intestine length, substance 20 mg/kg, atropin 5 mg/kg, reference 58.7 ± 2.5
Method: as §1, §2

calves = experiment: reduction of diarrhea occurrence in new-born calves; assay type: in vivo
Method: With the referenoe individuals (n=66) diarrhea has occurred with about 80% thereof. The medicament of the invention, if administered for 2 to 3 days in a 10 mg daily dose, reduced the diarrhea ocourrence by 40-50%, and with a 20 mg d aily dose during 3 days of administration even less than 4% (P<0.01). In the control group of calves to which no medicament was administered, a multiple mortality has been observed.

mice [3] = experiment: castor oil-provoked diarrhea in mice; assay type: in vivo; conditions: 20 mg/kg, 30 minutes before castor oil; control 91.2±4.4 minutes
[4] = retention of stomach content; assay type: in vivo; conditions: active substance 10-20 mg/kg; atropin dose not stated
rats = experiment: one month toxicity study of rats; assay type: in vivo
dogs (beagle) = experiment: chronic six months toxicity study on dogs; assay type: in vivo
mice [5] = conditions: mouse, in vivo
rat = conditions: in vivo
mice [6] = conditions: mouse, in vivo; remark: listed apart in the source
adenylate cyclase = conditions: Hynie et al 1986; cited from earlier work
[7] = V. Nosalova et al 1986; cited from earlier work
[8] = cited from earlier work
in vivo [9] = conditions: mouse
in vivo [10] = conditions: rat
in vivo [11] = conditions: rabbit
in vivo [12] = conditions: guinea pig
mice [13] = experiment: teratological and embryotoxic experiments on mice
Salmonella typhimurium = experiment: mutation tests and reparative tests, Salmonella typhimurium
[14] = 100% is the complete intestine length, substance 20 mg/kg

CN1C2CCC1CC(OC(=O)C(CO)c1ccccc1)C2 (stereo not shown) [atropin, reference compound]
intestinal passage of carbo adsorbens, complete intestine [1, 14]: 51.4 ± 2.6%
intestinal passage of carbo adsorbens, small intestines [2]: 46.3 ± 2.5%

CCCCCOc1cccc(NC(=O)O[C@@H]2CCCC[C@H]2N2CCCC2)c1 (relative stereo) [substance of the formula, (±)-trans-2(1-pyrrolidinyl) cyclohexylester of 3-(n)-pentyloxycarbanilic acid]
mortality of untreated control calves compared with treated calves (in words) (calves; bovine, in vivo): a statistically considerably higher number perish
reduction of diarrhea occurrence (calves; calves, average 40 kg, 10 mg daily dose, 2 to 3 days, reference about 80% (n=66)): 40-50%
diarrhea occurrence (printed as: reduced ... even less than 4%) (calves; calves, average 40 kg, 20 mg daily dose, 3 days, P<0.01, reference about 80% (n=66)): less than 4%
reduction of diarrhea (in words) (calves; calves, 10 and 20 mg per diem, one to three days after birth): significant reduction of diarrhea with involved animals depending upon the dose applied
latent period up to the beginning of the diarrhea (mice [3]): 127.3 ± 6.3 min
influence on passage of intestine content (in words) [1]: does not significantly influence the passage of intestine content
intestinal passage of carbo adsorbens, complete intestine [1, 14]: 80.3 ± 1.2%
intestinal passage of carbo adsorbens, small intestine ([1]; 100% is the complete intestine length, substance 20 mg/kg, reference 91.7 ± 2.2): 96.6 ± 0.95%
influence on passage of intestine content (in words) [2]: does not significantly influence the passage of intestine content
intestinal passage of carbo adsorbens, small intestines [2]: 60.1 ± 1.5%
retention of stomach content [4]: unchanged
hematological, biochemical and morphological indices or animal weight (rats; p.o. 0.1, 1, 10 mg/kg): neither hematological, biochemical and morphological indices or the animal weight have not been considerably influenced
influence on behavior (rats; p.o. 0.1, 1, 10 mg/kg): has not shown any influence on the behavior of animals
increase in weight (rats; p.o., two highest doses): in some cases lower than average
changes in weight of dogs (dogs (beagle); both sexes, six months, p.o. 2, 10, 30 mg/kg): has not exhibited with doses of 2; 10; 30 mg/kg any extensive changes in the weight of dogs
harmfulness of the substance in the six months period (dogs (beagle); p.o., dose range up to 2 mg/kg): no proofs about any harmfulness of the substance
toxicity at the high doses (weight, behavior, mortality) (dogs (beagle); six months, p.o., two highest doses): a decrease in weight, defective behavior and mortality have occurred
toxic effect in hematological, biochemical and morphological indices (dogs (beagle); six months, p.o., two lower doses): No toxic effect in hematological, biochemical and morphological indices has been observed with the two lower doses
heart activity and psychomotoric changes (dogs (beagle); six months, p.o., two lower doses (exception)): minor changes in the heart activity, and particularly by influencing the pulse conductivity and further by psychomotoric unrest
LD50 (mice [5]; ip): 59 mg/kg
LD50 (mice [5]; po): 840 mg/kg
LD50 (mice [5]; sc): 128 mg/kg
LD50 (rat; ip): 75 mg/kg
LD50 (rat; iv): 13.8 mg/kg
LD50 (rat; po): 1030 mg/kg
LD50 (rat; sc): 283 mg/kg
occurrence of skeletal abnormalities (mice [6]): the same as in the reference group
mutation changes in reparative tests (Escherichia coli): have not been observed
qualitative or quantitative mutations (Escherichia coli): have not been observed
reduction of adenylate cyclase activity (adenylate cyclase): a significant reduction of adenylate cyclase activity
antiulcerose / gastric cytoprotective effect [7]: antiulcerose effects with a marked gastric cytoprotective effect
locally anaesthetic effect ([8]; L. Benes et al 1969): exhibits the well-known locally anaesthetic effects
locally anaesthetic and spasmolytic effects ([8]; P. Svec et al 1976): locally anaesthetic and spasmolytic effects
locally anaesthetic activity at decreased pH ([8]; media with decreased pH value at the acid side, S. Stole et al 1978): maintenance of its locally anaesthetic activity even in media with decreased pH value at the acid side
LD50 (in vivo [9]; ip): 56 mg/kg
LD50 (in vivo [9]; iv): 10.3 mg/kg
LD50 (in vivo [9]; po): 790 mg/kg
LD50 (in vivo [9]; sc): 122 mg/kg
LD50 (in vivo [10]; ip): 70 mg/kg
LD50 (in vivo [10]; iv): 11.8 mg/kg
LD50 (in vivo [10]; po): 1110 mg/kg
LD50 (in vivo [10]; sc): 295 mg/kg
LD50 (in vivo [11]; ip): 46.5 mg/kg
LD50 (in vivo [11]; iv): 2.92 mg/kg
LD50 (in vivo [12]; iv): 7.8 mg/kg
LD50 (in vivo [12]; sc): 73.2 mg/kg
fetal weight, implantates, placenta and amniotic liquor (mice [13]; 0.21, 2.1, 8.4, 21, 42, 84 mg/kg): no changes in the amounts of fetal weight implantates, placenta and amniotio liquor were found
fetuses with palate fissure (mice [13]; only at highest dose of 84 mg/kg): less than 10%
mutation changes in reparative tests (Salmonella typhimurium): have not been observed
qualitative or quantitative mutations (Salmonella typhimurium): have not been observed
